According to patent publication US20170281728A1, “METHOD FOR TREATING CANCER USING TETRADRINE” (Board of Supervisors of Louisiana State University and …, priority 2016, published 2017):

Key:
DR5 [1] = assay: DR5 protein level by western blotting, C4-2b cells; format: cell-based; settings: 20 μM TET, 0-48 hours, GAPDH loading control
Experimental: (§1) LNCaP and C4-2b cells were used as model cell lines that show resistance to TRAIL. […] In the present study we evaluated the effects of TET alone or in combination with TRAIL and TNF-α. Prostate cancer cell lines LNCaP and LNCaP derived C4-2b were used for this study. Cell lines were treated with TET, TRAIL, or TNF-αalone or in various combinations for different time points. mRNA expression was quantitated via Real Time-PCR and changes in protein expression were analyzed by Western Blot analysis. Cytotoxicity was evaluated using the Crystal violet and MTT survival assay. Turning to FIGS. 2A-2C, C4-2b cells were treated with 20 μM TET for 0-48 hours. After the treatments cells were lysed and DR4, DR5 and TNFR1 levels were detected by western blotting. Similarly, in FIGS. 3-5, densiomentry fold increase for DR4, DR5 and TNFR1 western blots is shown. The fold increase was calculated with the density of untreated LNCaP cells as a reference. GAPDH was used as loading control. Averages are representative of 3 independent experiments. Error bars represent standard deviation.

DR5 [2] = assay: DR5 protein level (array / western blot densitometry), LNCaP cells; format: cell-based; settings: 20 μM TET, versus untreated cells
Experimental: as §1, with “assay. […] LNCaP cells were either untreated or treated with 20 μM TET for 24 hours. Arrays were incubated with 400 μg of each cell lysate. Data shown in FIG. 1 are from a 1 minute exposure to X-ray film. […] Fold increase was calculated with the density of untreated LNCaP cells as a reference. Averages are representative of 2 independent experiments. Error bars represent standard deviation.” for “assay.”, “Averages are representative of 3 independent experiments. Error bars represent standard deviation.” left out

C4-2b cells = assay: Cytotoxicity by crystal violet staining and MTT survival assay, C4-2b cells; format: cell-based; settings: for response of cells following exposure to the agent alone: TRAIL or TNF-α alone
Experimental: (§2) LNCaP and C4-2b cells were used as model cell lines that show resistance to TRAIL. […] In the present study we evaluated the effects of TET alone or in combination with TRAIL and TNF-α. Prostate cancer cell lines LNCaP and LNCaP derived C4-2b were used for this study. Cell lines were treated with TET, TRAIL, or TNF-αalone or in various combinations for different time points. mRNA expression was quantitated via Real Time-PCR and changes in protein expression were analyzed by Western Blot analysis. Cytotoxicity was evaluated using the Crystal violet and MTT survival assay.
(§3) Turning to FIGS. 12-15, pretreatment of both cell lines with TET for 12 hours, followed by TRAIL and TNF-α treatment for another 24 hours increased the apoptosis inducing potential of TRAIL and TNF-α in these cells. […] For FIGS. 12 and 14, LNCap (FIG. 12) and C4-2b (FIG. 14) cells treated with or without TET, TRAIL, and TNFα were crystal violet stained. Wells are representative of at least three repeats. For FIGS. 13 and 15, LNCap (FIG. 13) and C4-2b (FIG. 15) cells were subjected to MTT assay using the same experimental plan as in FIGS. 12, 14 respectively. Data were normalized to the untreated control at the respective concentrations of TET, TRAIL and TNF-α. Data are representative of at least three repeats.

DR4 [3] = assay: DR4 protein level (array / western blot densitometry), LNCaP cells; format: cell-based; settings: 20 μM TET, versus untreated cells
Experimental: as §1, with “assay. […] LNCaP cells were either untreated or treated with 20 μM TET for 24 hours. Arrays were incubated with 400 μg of each cell lysate. Data shown in FIG. 1 are from a 1 minute exposure to X-ray film. […] Fold increase was calculated with the density of untreated LNCaP cells as a reference. Averages are representative of 2 independent experiments. Error bars represent standard deviation.” for “assay.”, “Averages are representative of 3 independent experiments. Error bars represent standard deviation.” left out

DR4 [4] = assay: DR4 mRNA expression by reverse transcriptase PCR, LNCaP cells; format: cell-based; settings: 20 μM Tet, 0-48 hours, normalized to GAPDH
Experimental: as §2, with “assay. Turning to FIGS. 6-11, LNCaP and C4-2b cells were incubated in the presence of 20 μM of Tet for different time points (0-48 hours). Total RNA was prepared from the cells and cDNA was transcribed. Reverse transcriptase PCR was performed to determine the mRNA levels of DR4, DR5 and TNF-α. GAPDH was used for normalization. Each data point represents mean+/−standard deviation of three independent gels.” for “assay.”

prostate cancer cells [5] = assay: Apoptosis in prostate cancer cells in vitro; format: cell-based
DR4 [6] = assay: DR4 protein level by western blotting, C4-2b cells; format: cell-based; settings: 20 μM TET, 0-48 hours, GAPDH loading control
Experimental: as §1

TNFR1 [7] = assay: TNFR1 protein level by western blotting, C4-2b cells; format: cell-based; settings: 20 μM TET, 0-48 hours, GAPDH loading control
Experimental: as §1

prostate cancer cells [8] = assay: Apoptosis in prostate cancer cells in vivo
LNCaP cells = assay: Cytotoxicity by crystal violet staining and MTT survival assay, LNCaP cells; format: cell-based; settings: for response of cells following exposure to the agent alone: TRAIL or TNF-α alone
Experimental: as §2, §3

DR4 [9] = assay: DR4 mRNA expression by reverse transcriptase PCR, C4-2b cells; format: cell-based; settings: 20 μM Tet, 0-48 hours, normalized to GAPDH
Experimental: as §2, with “assay. Turning to FIGS. 6-11, LNCaP and C4-2b cells were incubated in the presence of 20 μM of Tet for different time points (0-48 hours). Total RNA was prepared from the cells and cDNA was transcribed. Reverse transcriptase PCR was performed to determine the mRNA levels of DR4, DR5 and TNF-α. GAPDH was used for normalization. Each data point represents mean+/−standard deviation of three independent gels.” for “assay.”

DR5 [10] = assay: DR5 mRNA expression by reverse transcriptase PCR, LNCaP cells; format: cell-based; settings: 20 μM Tet, 0-48 hours, normalized to GAPDH
Experimental: as §2, with “assay. Turning to FIGS. 6-11, LNCaP and C4-2b cells were incubated in the presence of 20 μM of Tet for different time points (0-48 hours). Total RNA was prepared from the cells and cDNA was transcribed. Reverse transcriptase PCR was performed to determine the mRNA levels of DR4, DR5 and TNF-α. GAPDH was used for normalization. Each data point represents mean+/−standard deviation of three independent gels.” for “assay.”

TNFR1 [11] = assay: TNFR1 mRNA expression by reverse transcriptase PCR, LNCaP cells; format: cell-based; settings: 20 μM Tet, 0-48 hours, normalized to GAPDH
TNFR1 [12] = assay: TNFR1 mRNA expression by reverse transcriptase PCR, C4-2b cells; format: cell-based; settings: 20 μM Tet, 0-48 hours, normalized to GAPDH
DR5 [13] = assay: DR5 mRNA expression by reverse transcriptase PCR, C4-2b cells; format: cell-based; settings: 20 μM Tet, 0-48 hours, normalized to GAPDH
Experimental: as §2, with “assay. Turning to FIGS. 6-11, LNCaP and C4-2b cells were incubated in the presence of 20 μM of Tet for different time points (0-48 hours). Total RNA was prepared from the cells and cDNA was transcribed. Reverse transcriptase PCR was performed to determine the mRNA levels of DR4, DR5 and TNF-α. GAPDH was used for normalization. Each data point represents mean+/−standard deviation of three independent gels.” for “assay.”

TNFR1 [14] = assay: TNFR1 protein level (array / western blot densitometry), LNCaP cells; format: cell-based; settings: 20 μM TET, versus untreated cells
Experimental: as §1, with “assay. […] LNCaP cells were either untreated or treated with 20 μM TET for 24 hours. Arrays were incubated with 400 μg of each cell lysate. Data shown in FIG. 1 are from a 1 minute exposure to X-ray film. […] Fold increase was calculated with the density of untreated LNCaP cells as a reference. Averages are representative of 2 independent experiments. Error bars represent standard deviation.” for “assay.”, “Averages are representative of 3 independent experiments. Error bars represent standard deviation.” left out

[15] = TET pretreatment 12 hours, then TRAIL and TNF-α for another 24 hours

COc1ccc2cc1Oc1ccc(cc1)C[C@H]1c3cc(c(OC)cc3CCN1C)Oc1c(OC)c(OC)cc3c1[C@H](C2)N(C)CC3 [TET, Tetrandrine]
protein level of DR5 (DR5 [1]): increased | protein level of DR5 (DR5 [2]): increased | apoptosis inducing potential of TRAIL and TNF-α after TET pretreatment (C4-2b cells; [15]): increased | apoptosis response to soluble h-TRAIL and TNF-α in combination with TET (C4-2b cells; TET treated cells in vitro): synergistic apoptosis response | protein level of DR4 (DR4 [3]): increased | mRNA level of DR4 (DR4 [4]): increased | apoptosis in prostate cancer cells (prostate cancer cells [5]): promotes apoptosis | protein level of DR4 (DR4 [6]): increased | protein level of TNFR1 (TNFR1 [7]): increased | apoptosis in prostate cancer cells (prostate cancer cells [8]): promotes apoptosis | apoptosis inducing potential of TRAIL and TNF-α after TET pretreatment (LNCaP cells; [15]): increased | apoptosis response to soluble h-TRAIL and TNF-α in combination with TET (LNCaP cells; TET treated cells in vitro): synergistic apoptosis response | mRNA level of DR4 (DR4 [9]): increased | mRNA level of DR5 (DR5 [10]): increased | mRNA level of TNFR1 (TNFR1 [11]): increased | mRNA level of TNFR1 (TNFR1 [12]): increased | mRNA level of DR5 (DR5 [13]): increased | protein level of TNFR1 (TNFR1 [14]): increased

TNF-α
response of cells following exposure to the agent alone (C4-2b cells): did not show a significant response | response of cells following exposure to the agent alone (LNCaP cells): did not show a significant response

B1: TRAIL: protein functioning as a ligand that induces apoptosis; cytokine binding death receptors DR4 and DR5 (protein, UniProt P50591 1-281, looked up)
Tumor necrosis factor ligand …: MAMMEVQGGPSLGQTCVLIVIFTVLLQSLCVAVTYVYFTNELKQMQDKYSKSGIACFLKEDDSYWDPNDEESMNSPCWQVKWQLRQLVRKMILRTSEETISTVQEKQQNISPLVRERGPQRVAAHITGTRGRSNTLSSPNSKNEKALGRKINSWESSRSGHSFLSNLHLRNGELVIHEKGFYYIYSQTYFRFQEEIKENTKNDKQMVQYIYKYTSYPDPILLMKSARNSCWSKDAEYGLYSIYQGGIFELKENDRIFVSVTNEHLIDMDHEASFFGAFLVG
response of cells following exposure to the agent alone (C4-2b cells): did not show a significant response | response of cells following exposure to the agent alone (LNCaP cells): did not show a significant response
